Results taken from patent US9962391B2, “Composition and method for compounded therapy” (CMPD LICENSING, LLC, priority 2011, dated 2018).

Experiments:
[1] = Forced degradation study (heat and acid) on Meloxicam/Gabapentin/Lidocaine/Prilocaine Cream 0.09%/2.5%/2.15%/2.15%; details: untreated, heat treated and acid treated samples, undiluted extracts
Method: (§1) The column temperature was 50° C.
as §1

[2] = 198 Day Potency Test of transdermal cream including meloxicam, lamotrigine, lidocaine, and prilocaine; format: physicochemical; details: 198 days, stored at approximately 20° C. to 25° C., in cream, HPLC; for % of EXP.: relative to expected amount
Method: (§2) The sample was stored in approximately 20° C. to 25° C. (68° F. to 77° F.) conditions, and contained one large white tube with cream in a clear bag.

[3] = 100 Day Potency Test of transdermal cream including meloxicam, topiramate, lidocaine, and prilocaine; format: physicochemical; details: 100 days, stored at approximately 20° C. to 25° C., in cream, HPLC; for % of EXP.: relative to expected amount
Method: as §2

Row | Structure (SMILES) | Degradation seen in Total Ion Chromatograms (TIC) [1] | Results (amount of analyte found) [2] | % of EXP. [2] | Results (amount of analyte found) [3] | % of EXP. [3]
1 | NCC1(CC(=O)O)CCCCC1 [Gabapentin] | major degradant at 1.18 minute was caused both by acid and by heat | – | – | – | –
2 | Nc1nnc(-c2cccc(Cl)c2Cl)c(N)n1 [Lamotrigine] | – | 2.463% | 98.5% | – | –
3 | CCN(CC)CC(=O)Nc1c(C)cccc1C [Lidocaine] | – | 1.927% | 96.4% | 1.700% | 85.0%
4 | CCCNC(C)C(=O)Nc1ccccc1C (stereo not shown) [Prilocaine] | – | 2.118% | 105.9% | 1.899% | 95.0%
5 | CC1(C)O[C@@H]2[C@@H](CO[C@@]3(COS(N)(=O)=O)OC(C)(C)O[C@@H]23)O1 [Topiramate] | – | – | – | 2.368% | 94.7%
